Ends that are not written are not given here.
Tests used:
[1] = system: pepsin; test: Stability of oral formulations of Angiopep peptides in the presence of pepsin; format: in vitro ADME; conditions: pepsin (isolated enzyme); 1 mg/mL peptide; 1 mg/25 mL pepsin (diluted 41 times, pH=1.4); 37° C.
Description: The stability of oral formulations (1 mg/mL of Angiopep peptide) was determined in the presence of 1 mg/25 mL of pepsin (diluted 41 times, pH=1.4), an enzyme present in gastric fluid, at 37° C. Table 5 provides the half-life (t1/2) for degradation of various Angiopep peptides.

[2] = system: BBB; test: In situ brain perfusion in mice with capillary depletion (transport across the BBB); format: in vivo; conditions: for crossing of the BBB (overall conclusion): mouse, in vivo
Description: The initial transport was measured as a function of time.

[3] = system: mice; test: Induction of hypothermia (body temperature) after intravenous bolus; format: in vivo; conditions: Table 9 grades

Sequence of pepsin (P0DJD8 63-388): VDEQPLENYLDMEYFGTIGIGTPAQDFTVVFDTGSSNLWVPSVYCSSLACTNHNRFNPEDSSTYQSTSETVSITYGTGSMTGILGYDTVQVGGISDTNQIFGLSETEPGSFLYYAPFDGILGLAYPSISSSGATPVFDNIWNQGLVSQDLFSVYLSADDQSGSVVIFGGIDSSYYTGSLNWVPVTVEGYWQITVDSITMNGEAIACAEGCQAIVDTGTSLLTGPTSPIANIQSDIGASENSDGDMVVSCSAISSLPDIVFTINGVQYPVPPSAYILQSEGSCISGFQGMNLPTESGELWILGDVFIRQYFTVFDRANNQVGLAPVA

Molecule | half-life at 1 mg/mL [1] [min] | further results
C[C@@H](O)[C@H](N)C(=O)N[C@@H](Cc1ccccc1)C(=O)N[C@@H](Cc1ccccc1)C(=O)N[C@@H](Cc1ccc(O)cc1)C(=O)NCC(=O)NCC(=O)N[C@@H](CO)C(=O)N[C@@H](CCCNC(=N)N)C(=O)NCC(=O)N[C@@H](CCCCN)C(=O)N[C@@H](CCCNC(=N)N)C(=O)N[C@@H](CC(N)=O)C(=O)N[C@@H](CC(N)=O)C(=O)N[C@@H](Cc1ccccc1)C(=O)N[C@@H](CCCCN)C(=O)N[C@H](C(=O)N[C@@H](CCC(=O)O)C(=O)N[C@@H](CCC(=O)O)C(=O)N[C@@H](Cc1ccc(O)cc1)C(=O)O)[C@@H](C)O [An2, T F F Y G G S R G K R N N F K T E E Y, reference compound] | 40 | –
C[C@@H](O)[C@H](N)C(=O)N[C@@H](Cc1ccccc1)C(=O)N[C@@H](Cc1ccccc1)C(=O)N[C@@H](Cc1ccc(O)cc1)C(=O)NCC(=O)NCC(=O)N[C@@H](CO)C(=O)N[C@H](CCCNC(=N)N)C(=O)NCC(=O)N[C@H](CCCCN)C(=O)N[C@H](CCCNC(=N)N)C(=O)N[C@@H](CC(N)=O)C(=O)N[C@@H](CC(N)=O)C(=O)N[C@@H](Cc1ccccc1)C(=O)N[C@@H](CCCCN)C(=O)N[C@H](C(=O)N[C@@H](CCC(=O)O)C(=O)N[C@@H](CCC(=O)O)C(=O)N[C@@H](Cc1ccc(O)cc1)C(=O)O)[C@@H](C)O [Peptide 3D-An2] | 60 | –
C[C@@H](O)[C@H](NC(=O)[C@H](CCCCN)NC(=O)[C@H](Cc1ccccc1)NC(=O)[C@H](CC(N)=O)NC(=O)[C@H](CC(N)=O)NC(=O)[C@H](CCCNC(=N)N)NC(=O)[C@@H](N)CCCCN)C(=O)N[C@@H](CCC(=O)O)C(=O)N[C@@H](CCC(=O)O)C(=O)N[C@@H](Cc1ccc(O)cc1)C(=O)N[C@@H](CS)C(N)=O [Peptide P5] | 24 | crossing of the BBB (overall conclusion) [2]: effectively cross the BBB
C[C@@H](O)[C@H](NC(=O)[C@H](CCCCN)NC(=O)[C@@H](Cc1ccccc1)NC(=O)[C@H](CC(N)=O)NC(=O)[C@H](CC(N)=O)NC(=O)[C@@H](CCCNC(=N)N)NC(=O)[C@H](N)CCCCN)C(=O)N[C@@H](CCC(=O)O)C(=O)N[C@@H](CCC(=O)O)C(=O)N[C@@H](Cc1ccc(O)cc1)C(=O)N[C@@H](CS)C(N)=O [Peptide P5a, D-Lys-D-Arg-Asn-Asn-D-Phe-Lys-Thr-Glu-Glu-Tyr-Cys] | 21 | –
CC[C@H](C)[C@H](NC(=O)[C@@H](Cc1ccc(O)cc1)NC(=O)[C@@H]1CCCN1C(=O)[C@H](CCCNC(=N)N)NC(=O)[C@H](CCCNC(=N)N)NC(=O)[C@H](CCCCNC(=O)CCCCCN1C(=O)CC(SC[C@H](NC(=O)[C@H](Cc2ccc(O)cc2)NC(=O)[C@H](CCC(=O)O)NC(=O)[C@H](CCC(=O)O)NC(=O)[C@@H](NC(=O)[C@H](CCCCN)NC(=O)[C@@H](Cc2ccccc2)NC(=O)[C@H](CC(N)=O)NC(=O)[C@H](CC(N)=O)NC(=O)[C@@H](CCCNC(=N)N)NC(=O)[C@H](N)CCCCN)[C@@H](C)O)C(N)=O)C1=O)NC(C)=O)C(=O)N[C@@H](CC(C)C)C(=O)O (stereo partly shown) [Peptide P5a-NT1] | – | brain uptake ([2]; in situ brain perfusion in mice, initial transport measured as a function of time): higher than for neurotensin (NT)
N=C(N)NCCC[C@H](NC(=O)[C@@H](N)CCCCN)C(=O)N[C@@H](CC(N)=O)C(=O)N[C@@H](CC(N)=O)C(=O)N[C@@H](Cc1ccccc1)C(=O)N[C@@H](CCCCN)C(=O)N[C@@H](Cc1ccc(O)cc1)C(=O)N[C@@H](CS)C(N)=O [Peptide P6] | > 240 | –
N=C(N)NCCC[C@@H](NC(=O)[C@H](N)CCCCN)C(=O)N[C@@H](CC(N)=O)C(=O)N[C@@H](CC(N)=O)C(=O)N[C@H](Cc1ccccc1)C(=O)N[C@@H](CCCCN)C(=O)N[C@@H](Cc1ccc(O)cc1)C(=O)N[C@@H](CS)C(N)=O [Peptide P6a, D-Lys-D-Arg-Asn-Asn-D-Phe-Lys-Tyr-Cys] | > 1080 | –
FYGGSRGKRNNFKTEEYC-NH2 [Peptide P1] | – | crossing of the BBB (overall conclusion) [2]: effectively cross the BBB
TFFYGGSRG K R N N F KTEEY E L Y E N K P R R P Y I L (TFFYGGSRGKRNNFKTEEYELYENKPRRPYIL) [An2-NT, fusion protein] | – | Hypothermia [3]: ✓✓✓

Reference: US20180015180A1, “SHORT AND D-AMINO ACID-CONTAINING POLYPEPTIDES FOR THERAPEUTIC CONJUGATES AND USES THEREOF” (AngioChem Inc., priority 2010, published 2018)
